Each structure is given as a SMILES string. Square brackets hold non-standard residues; d marks the D form. Peptide text beside a SMILES is read from it. * marks the point of attachment. Octanoyl = CCCCCCCC(=O)*; Octyl = CCCCCCCC*

The target in the test is T1, rat GHS-receptor (GHR-R) (Rattus norvegicus, UniProt O08725).
T1 construct: A full-length cDNA for rat GHR-R was obtained by RT-PCR; expressed in transfected cells
Put plainly: Ca-releasing activity (increase in intracellular calcium) in CHO-GHSR62 cells, FLIPR. The test is classed as cell-based. Particulars: CHO-GHSR62 cells (CHO cells expressing rat GHS receptor), FLIPR; read-out: Ca-releasing activity EC50. The source says: To assay an increase in the intracellular calcium ion concentration (Ca-releasing activity) occurring upon binding of a GH secretagogue (GHS) to GHS-receptor (GHR-R), a cell strain expressing rat GHR-R was created in the following manner. A full-length cDNA for rat GHR-R was obtained by RT-PCR (reverse transcriptase-polymerase chain reaction) where a cDNA derived from rat brain was used as template. From the nucleotide sequence of known rat GHR-R [K. K. Mckee, et al, Molecular Endocrinology 11, 415-423 (1997)], sense and antisense primers consisting of the following nucleotide sequences were synthesized.
The amplified cDNA was ligated to vector pcDNAIII (Invitrogen) to construct expression vector GHSR-pcDNAIII. CHO cells were transformed via the expression vector, and the transformed cells stably expressing GHR-R were selected in a medium containing 1 μg/ml G418. […] A change in the intracellular calcium ion concentration (Ca-releasing activity) was measured by an FLIPR system (Molecular Device). Before this measurement, 4×10^4 CHO-GHSR62 cells were put to a 96-well microplate with black wall (Corning Co., Ltd) and cultured for 12 to 15 hours. Then, the cells were incubated with 4 μM fluorescent Fluo4 (Molecular Probe Co., Ltd) for 1 hour and washed four times with Hank's BSS (Hank's Balanced Salt Solution) containing 20 mM Hepes ([N-2-hydroxyethyl]-piperazine-N-[2-ethanesulfonic acid]) and 2.5 mM probenecid, and the Ca-releasing activity was assayed by adding a sample and measuring a change in the fluorescence.
Peptide fragments obtained by partially digested the rat- and human-derived ghrelins by various proteases, or chemically synthesized peptides, were examined for their Ca releasing activity in order to determine a core amino acid sequence and the optimum chain length of a modifying fatty acid necessary for Ca-releasing activity.
The Ca-increasing activities of the ghrelin derivative peptide-type compounds synthesized in Example 10 and the natural ghrelin peptide were measured in the same manner as in Example 1.
In this examination, the intracellular Ca-releasing activity in CHO cells expressing rat GSH receptor was used as the indicator.

T1 sequence (O08725 whole entry): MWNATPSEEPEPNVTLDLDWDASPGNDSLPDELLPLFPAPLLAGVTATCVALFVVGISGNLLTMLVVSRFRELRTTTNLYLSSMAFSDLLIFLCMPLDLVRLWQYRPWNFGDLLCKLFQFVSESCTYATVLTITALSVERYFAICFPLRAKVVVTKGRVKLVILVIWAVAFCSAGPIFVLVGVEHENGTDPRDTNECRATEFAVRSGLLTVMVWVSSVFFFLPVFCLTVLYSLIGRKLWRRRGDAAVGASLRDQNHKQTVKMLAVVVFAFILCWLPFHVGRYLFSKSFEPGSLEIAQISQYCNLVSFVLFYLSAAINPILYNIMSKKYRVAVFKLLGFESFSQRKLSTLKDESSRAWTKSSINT

The EC50 is the concentration that produces a half-maximal response. Turning to `CCCCCCCC(=O)OC[C@H](NC(=O)[C@H](CC(C)C)NC(=O)CN)C(=O)N[C@@H](Cc1ccccc1)C(=O)N[C@@H](CC(C)C)C(=O)N[C@@H](CO)C(=O)N1CCC[C@H]1C(N)=O` [Compound 44, [Leu^2]-Ghrelin (1-7)-amide] (H-GLS(Octanoyl)FLSP-NH2), the half-maximal effective concentration (EC50) was 42 nM.
As for `CCCCCCCC(=O)OC[C@H](NC(=O)[C@H](Cc1c[nH]cn1)NC(=O)CN)C(=O)N[C@@H](Cc1ccccc1)C(=O)N[C@@H](CC(C)C)C(=O)N[C@@H](CO)C(=O)N1CCC[C@H]1C(N)=O` [Compound 45, [His^2]-Ghrelin (1-7)-amide] (H-GHS(Octanoyl)FLSP-NH2), the figure is 35 nM; as for `CCCCCCCC(=O)OC[C@H](NC(=O)[C@H](CCCCN)NC(=O)CN)C(=O)N[C@@H](Cc1ccccc1)C(=O)N[C@@H](CC(C)C)C(=O)N[C@@H](CO)C(=O)N1CCC[C@H]1C(N)=O` [Compound 46, [Lys^2]-Ghrelin (1-7)-amide] (H-GKS(Octanoyl)FLSP-NH2), 24 nM; as for `CCCCCCCC(=O)OC[C@H](NC(=O)CNC(=O)CN)C(=O)N[C@@H](Cc1ccccc1)C(=O)N[C@@H](CC(C)C)C(=O)N[C@@H](CO)C(=O)N1CCC[C@H]1C(N)=O` [Compound 47, [Gly^2]-Ghrelin (1-7)-amide] (H-GGS(Octanoyl)FLSP-NH2), 78 nM.
As for `CCCCCCCCSC[C@H](NC(=O)[C@H](CO)NC(=O)CN)C(=O)N[C@@H](Cc1ccccc1)C(=O)N[C@@H](CC(C)C)C(=O)N[C@@H](CO)C(=O)N1CCC[C@H]1C(N)=O` [Compound 48, [Cys^3(Octyl)]-Ghrelin (1-7)-amide] (H-GSC(Octyl)FLSP-NH2), the figure is 7.4 nM; as for `CCCCCCCCSC[C@H](NC(=O)[C@H](CO)NC(=O)CN)C(=O)N[C@H](Cc1ccccc1)C(=O)N[C@@H](CC(C)C)C(=O)N[C@@H](CO)C(=O)N1CCC[C@H]1C(N)=O` [Compound 49, [Cys^3(Octyl), ^DPhe^4]Ghrelin (1-7)-amide] (H-GSC(Octyl)[dF]LSP-NH2), 3000 nM.
The value for `CCCCCCCCOC[C@H](NC(=O)[C@H](CO)NC(=O)CN)C(=O)N[C@@H](Cc1ccccc1)C(=O)N[C@@H](CC(C)C)C(=O)N[C@@H](CO)C(=O)N1CCC[C@H]1C(N)=O` [Compound 50, [Ser^3(Octyl)]-Ghrelin (1-7)-amide] was 5.8 nM; that for `CCCCCCCCOC[C@@H](NC(=O)[C@H](CO)NC(=O)CN)C(=O)N[C@@H](Cc1ccccc1)C(=O)N[C@@H](CC(C)C)C(=O)N[C@@H](CO)C(=O)N1CCC[C@H]1C(N)=O` [Compound 52, [^DSer^3(Octyl)]-Ghrelin (1-7)-amide] was above 10000 nM.
Regarding `CCCCCCCCOC[C@@H](NC(=O)[C@H](CO)NC(=O)CN)C(=O)N[C@H](Cc1ccccc1)C(=O)N[C@@H](CC(C)C)C(=O)N[C@@H](CO)C(=O)N1CCC[C@H]1C(N)=O` [Compound 53, [^DSer^3(Octyl), ^DPhe^4]-Ghrelin (1-7)-amide], the EC50 was above 10000 nM.
Take `CCCCCCCOC(=O)C[C@H](NC(=O)[C@H](CO)NC(=O)CN)C(=O)N[C@@H](Cc1ccccc1)C(=O)N[C@@H](CC(C)C)C(=O)N[C@@H](CO)C(=O)N1CCC[C@H]1C(=O)N[C@@H](CCC(=O)O)C(=O)N[C@@H](Cc1c[nH]cn1)C(=O)N[C@@H](CCC(N)=O)C(=O)N[C@@H](CCCNC(=N)N)C(=O)N[C@H](C(=O)N[C@@H](CCC(N)=O)C(=O)N[C@@H](CCC(N)=O)C(=O)N[C@@H](CCCNC(=N)N)C(=O)N[C@@H](CCCCN)C(=O)N[C@@H](CCC(=O)O)C(=O)N[C@@H](CO)C(=O)N[C@@H](CCCCN)C(=O)N[C@@H](CCCCN)C(=O)N1CCC[C@H]1C(=O)N1CCC[C@H]1C(=O)N[C@@H](C)C(=O)N[C@@H](CCCCN)C(=O)N[C@@H](CC(C)C)C(=O)N[C@@H](CCC(N)=O)C(=O)N1CCC[C@H]1C(=O)N[C@@H](CCCNC(=N)N)C(=O)O)C(C)C` [Compound 54, [Asp^3(O-Heptyl)]-hGhrelin]: the EC50 was found to be 5.1 nM.
The value for `CCCCCCCNC(=O)C[C@H](NC(=O)[C@H](CO)NC(=O)CN)C(=O)N[C@@H](Cc1ccccc1)C(=O)N[C@@H](CC(C)C)C(=O)N[C@@H](CO)C(=O)N1CCC[C@H]1C(=O)N[C@@H](CCC(=O)O)C(=O)N[C@@H](Cc1c[nH]cn1)C(=O)N[C@@H](CCC(N)=O)C(=O)N[C@@H](CCCNC(=N)N)C(=O)N[C@H](C(=O)N[C@@H](CCC(N)=O)C(=O)N[C@@H](CCC(N)=O)C(=O)N[C@@H](CCCNC(=N)N)C(=O)N[C@@H](CCCCN)C(=O)N[C@@H](CCC(=O)O)C(=O)N[C@@H](CO)C(=O)N[C@@H](CCCCN)C(=O)N[C@@H](CCCCN)C(=O)N1CCC[C@H]1C(=O)N1CCC[C@H]1C(=O)N[C@@H](C)C(=O)N[C@@H](CCCCN)C(=O)N[C@@H](CC(C)C)C(=O)N[C@@H](CCC(N)=O)C(=O)N1CCC[C@H]1C(=O)N[C@@H](CCCNC(=N)N)C(=O)O)C(C)C` [Compound 55, [Asp^3(NH-Heptyl)]-hGhrelin] was 11 nM; that for `CCCCCCCC(=O)NC[C@H](NC(=O)[C@H](CO)NC(=O)CN)C(=O)N[C@@H](Cc1ccccc1)C(=O)N[C@@H](CC(C)C)C(=O)N[C@@H](CO)C(=O)N1CCC[C@H]1C(=O)N[C@@H](CCC(=O)O)C(=O)N[C@@H](Cc1cnc[nH]1)C(=O)N[C@@H](CCC(N)=O)C(=O)N[C@@H](CCCNC(=N)N)C(=O)N[C@H](C(=O)N[C@@H](CCC(N)=O)C(=O)N[C@@H](CCC(N)=O)C(=O)N[C@@H](CCCNC(=N)N)C(=O)N[C@@H](CCCCN)C(=O)N[C@@H](CCC(=O)O)C(=O)N[C@@H](CO)C(=O)N[C@@H](CCCCN)C(=O)N[C@@H](CCCCN)C(=O)N1CCC[C@H]1C(=O)N1CCC[C@H]1C(=O)N[C@@H](C)C(=O)N[C@@H](CCCCN)C(=O)N[C@@H](CC(C)C)C(=O)N[C@@H](CCC(N)=O)C(=O)N1CCC[C@H]1C(=O)N[C@@H](CCCNC(=N)N)C(=O)O)C(C)C` [Compound 56, [Dap^3(Octanoyl)]-hGhrelin] was 2.6 nM; that for `CCCCCCCSSC[C@H](NC(=O)[C@H](CO)NC(=O)CN)C(=O)N[C@@H](Cc1ccccc1)C(=O)N[C@@H](CC(C)C)C(=O)N[C@@H](CO)C(=O)N1CCC[C@H]1C(=O)N[C@@H](CCC(=O)O)C(=O)N[C@@H](Cc1c[nH]cn1)C(=O)N[C@@H](CCC(N)=O)C(=O)N[C@@H](CCCNC(=N)N)C(=O)N[C@H](C(=O)N[C@@H](CCC(N)=O)C(=O)N[C@@H](CCC(N)=O)C(=O)N[C@@H](CCCNC(=N)N)C(=O)N[C@@H](CCCCN)C(=O)N[C@@H](CCC(=O)O)C(=O)N[C@@H](CO)C(=O)N[C@@H](CCCCN)C(=O)N[C@@H](CCCCN)C(=O)N1CCC[C@H]1C(=O)N1CCC[C@H]1C(=O)N[C@@H](C)C(=O)N[C@@H](CCCCN)C(=O)N[C@@H](CC(C)C)C(=O)N[C@@H](CCC(N)=O)C(=O)N1CCC[C@H]1C(=O)N[C@@H](CCCNC(=N)N)C(=O)O)C(C)C` [Compound 57] was 1.4 nM.
As for `CCCCCCCC(=O)O[C@H](C)[C@H](NC(=O)[C@H](CO)NC(=O)CN)C(=O)N[C@@H](Cc1ccccc1)C(=O)N[C@@H](CC(C)C)C(=O)N[C@@H](CO)C(=O)N1CCC[C@H]1C(=O)N[C@@H](CCC(=O)O)C(=O)N[C@@H](Cc1c[nH]cn1)C(=O)N[C@@H](CCC(N)=O)C(=O)N[C@@H](CCCNC(=N)N)C(=O)N[C@H](C(=O)N[C@@H](CCC(N)=O)C(=O)N[C@@H](CCC(N)=O)C(=O)N[C@@H](CCCNC(=N)N)C(=O)N[C@@H](CCCCN)C(=O)N[C@@H](CCC(=O)O)C(=O)N[C@@H](CO)C(=O)N[C@@H](CCCCN)C(=O)N[C@@H](CCCCN)C(=O)N1CCC[C@H]1C(=O)N1CCC[C@H]1C(=O)N[C@@H](C)C(=O)N[C@@H](CCCCN)C(=O)N[C@@H](CC(C)C)C(=O)N[C@@H](CCC(N)=O)C(=O)N1CCC[C@H]1C(=O)N[C@@H](CCCNC(=N)N)C(=O)O)C(C)C` [Compound 59, [Thr^3(Octanoyl)]-hGhrelin], the figure is 10 nM.
Consider `CC(C)C[C@H](NC(=O)[C@H](CCCCN)NC(=O)[C@H](C)NC(=O)[C@@H]1CCCN1C(=O)[C@@H]1CCCN1C(=O)[C@H](CCCCN)NC(=O)[C@H](CCCCN)NC(=O)[C@H](CO)NC(=O)[C@H](CCC(=O)O)NC(=O)[C@H](CCCCN)NC(=O)[C@H](CCCNC(=N)N)NC(=O)[C@H](CCC(N)=O)NC(=O)[C@H](CCC(N)=O)NC(=O)[C@@H](NC(=O)[C@H](CCCNC(=N)N)NC(=O)[C@H](CCC(N)=O)NC(=O)[C@H](Cc1c[nH]cn1)NC(=O)[C@H](CCC(=O)O)NC(=O)[C@@H]1CCCN1C(=O)[C@H](CO)NC(=O)[C@H](CC(C)C)NC(=O)[C@H](Cc1ccccc1)NC(=O)[C@H](Cc1c[nH]c2ccccc12)NC(=O)[C@H](CO)NC(=O)CN)C(C)C)C(=O)N[C@@H](CCC(N)=O)C(=O)N1CCC[C@H]1C(=O)N[C@@H](CCCNC(=N)N)C(=O)O` [Compound 62, [Trp^3]-hGhrelin], for which the 50% effective concentration (EC50) came to 31 nM.

For the origin of these results see patent publication US7385026B1, “Modified ghrelin polypeptides” (priority 1999, dated 2008).
